# Laboratory results from ChEMBL document CHEMBL5365513, “Discovery of Selective Tertiary Amide Inhibitors of Cyclin-Dependent Kinase 2 (CDK2)” (ACS Med Chem Lett, 2023).
# Activity calls are given as the source filed them. No cut-off for these calls is given here.
# Legend:
# [1] = molecular target: Cyclin-dependent kinase 2/cyclin E1 (Homo sapiens, UniProt P24941); assay: Binding affinity to CDK2/Cyclin E1 (unknown origin) using Ulight-MBP as substrate assessed as inhibition constant preincubated for 30 mins followed by substrate addition measured after 90 mins in presence of ATP by TR-FRET assay; format: protein-complex assay
# [2] = Selectivity ratio of IC50 for human SK-OV-3 cells to IC50 for human OVISE cells; format: functional
# [3] = Selectivity ratio of Ki for CDK4/Cyclin D3 (unknown origin) to Ki for CDK2/Cyclin E1 (unknown origin)
# [4] = Apparent permeability across apical to basolateral side in MDCK cells at 5 uM measured for 60 to 180 mins by LC-MS/MS analysis; format: ADME, cell-based, Canis lupus familiaris; conditions: dog, time 60-180 min
# [5] = Metabolic stability in human liver microsomes assessed as clearance at 1 uM incubated upto 180 mins by LC/MS-MS analysis; format: ADME, Microsome
# [6] = Antiproliferative activity against human OVISE cells assessed as inhibition of cell division incubated for 16 hrs by EdU incorporation assay; format: functional, cell-based
# [7] = Metabolic stability in mouse liver microsomes assessed as clearance at 1 uM incubated upto 180 mins by LC/MS-MS analysis; format: ADME, Microsome
# [8] = Selectivity ratio of Ki for CDK1/Cyclin A2 (unknown origin) to Ki for CDK2/Cyclin E1 (unknown origin)
# [9] = molecular target: Mitogen-activated protein kinase 1 (Homo sapiens, UniProt P28482); assay: Binding affinity to ERK2 (unknown origin) using Ulight-MBP as substrate assessed as inhibition constant preincubated for 30 mins followed by substrate addition measured after 90 mins in presence of ATP by TR-FRET assay
# [10] = Protein binding in human plasma assessed as unbound fraction incubated for 24 hrs by HPLC analysis; format: ADME, cell-free
# [11] = Oral bioavailability in CD-1 mouse at 50 mg/kg measured for 24 hrs by LC-MS/MS analysis; format: ADME, organism-based; conditions: in vivo
# [12] = Lipophilicity, logD of compound at pH 7.4; format: physicochemical; conditions: buffer
# [13] = Volume of distribution at steady state in CD-1 mouse at 1 mg/kg, iv measured for 5 mins by LC-MS/MS analysis; format: ADME, organism-based; conditions: in vivo; for Vd: CD-1, mouse, read-out: Vdss
# MDR1 = assay: Efflux ratio of apparent permeability across basolateral to apical side to apical to basolateral side in MDCK-MDR1 cells at 5 uM measured for 60 to 180 mins by LC-MS/MS analysis; format: ADME, cell-based, Canis lupus familiaris; conditions: dog, time 60-180 min
# OVCAR-3 [14] = assay: Antitumor activity against human OVCAR-3 cells xenografted in C.B-17 SCID.bg mouse assessed as tumor growth inhibition at 125 mg/kg, po qd treated for 3 days relative to control; format: functional; conditions: OVCAR-3, 72 h, time 3 day, read-out: TGI
# [15] = AUC (infinity) in CD-1 mouse at 50 mg/kg, po measured for 24 hrs by LC-MS/MS analysis; format: ADME, organism-based; set-up: time 24 hrs, dose 50 mg/kg, route po; conditions: in vivo
# [16] = Kinetic solubility of compound; format: physicochemical; conditions: read-out: Kinetic_solubility
# [17] = molecular target: Cyclin-dependent kinase 1 (Homo sapiens) (UniProt P06493); assay: Inhibition of CDK1 (unknown origin) at 0.1 uM
# [18] = Clearance in CD-1 mouse at 1 mg/kg, iv measured for 5 mins by LC-MS/MS analysis; format: ADME, organism-based; conditions: in vivo
# OVCAR-3 [19] = assay: Antitumor activity against human OVCAR-3 cells xenografted in C.B-17 SCID.bg mouse assessed as tumor growth inhibition at 50 mg/kg, po bid treated for 3 days relative to control; format: functional; conditions: OVCAR-3, 72 h, time 3 day, read-out: TGI
# [20] = Half life in CD-1 mouse at 1 mg/kg, iv measured for 5 mins by LC-MS/MS analysis; format: ADME, organism-based; conditions: in vivo; for half-life: CD-1, mouse
# OVCAR-3 [21] = assay: Antitumor activity against human OVCAR-3 cells xenografted in C.B-17 SCID.bg mouse assessed as tumor growth inhibition at 80 mg/kg, po qd treated for 3 days relative to control; format: functional; conditions: OVCAR-3, 72 h, time 3 day, read-out: TGI
# [22] = Selectivity ratio of Ki for ERK2 (unknown origin) to Ki for CDK2/Cyclin E1 (unknown origin)
# Chain of Mitogen-activated protein kinase 1 (P28482 whole entry): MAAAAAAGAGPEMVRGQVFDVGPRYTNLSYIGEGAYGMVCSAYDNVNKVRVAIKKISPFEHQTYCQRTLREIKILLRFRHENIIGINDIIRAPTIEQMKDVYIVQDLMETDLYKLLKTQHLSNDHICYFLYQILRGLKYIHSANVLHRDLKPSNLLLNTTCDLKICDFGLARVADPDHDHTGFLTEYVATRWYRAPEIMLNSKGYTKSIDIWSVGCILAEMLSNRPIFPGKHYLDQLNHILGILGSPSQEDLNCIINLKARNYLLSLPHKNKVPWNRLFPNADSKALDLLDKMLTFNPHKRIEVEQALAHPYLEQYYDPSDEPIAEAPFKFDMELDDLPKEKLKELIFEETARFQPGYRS
# Chain of Cyclin-dependent kinase 1 (Homo sapiens) (P06493 whole entry, looked up): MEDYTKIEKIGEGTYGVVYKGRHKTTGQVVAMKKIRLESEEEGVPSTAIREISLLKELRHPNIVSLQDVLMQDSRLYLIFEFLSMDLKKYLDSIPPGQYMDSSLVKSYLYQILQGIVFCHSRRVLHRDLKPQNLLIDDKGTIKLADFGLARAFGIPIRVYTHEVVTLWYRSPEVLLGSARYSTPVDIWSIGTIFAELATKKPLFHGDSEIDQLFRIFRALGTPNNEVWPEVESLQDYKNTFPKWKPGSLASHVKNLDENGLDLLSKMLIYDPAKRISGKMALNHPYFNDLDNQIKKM
Ki [1] [nM],Ratio Ki [3],Papp A→B at 5 µM [4] [×10⁻⁶ cm/s],CLhep predicted at 1 µM [5] [mL/min/kg],CLhep predicted at 1 µM [7] [mL/min/kg],Ratio Ki [22],SMILES,Ratio IC50 [2],IC50 [6] [nM],also measured
0.21,271,15,17,50,–,CNS(=O)(=O)c1ccc(Nc2ncc3ccc(C(=O)N4C[C@@H](F)[C@@H]4C)nc3n2)c(F)c1,88,33,–
11,–,–,–,–,–,O=C(N[C@H](CO)c1ccc(Cl)c(F)c1)c1ccc2cnc(NC3CCOCC3)cc2n1,–,–,Ki [9]: 0.36 nM
0.18,178,17,9.4,51,–,CNS(=O)(=O)c1ccc(Nc2ncc3ccc(C(=O)N4C[C@@H](OC)[C@@H]4C)nc3n2)c(F)c1,52,25,Fu [10]: 0.28%; bioavailability [11]: 25%; logD [12]: 1.7; Vd [13]: 0.78 L/kg; efflux ratio at 5 µM (MDR1): 16; inhibition in vivo at 125 mg/kg (OVCAR-3 [14]): 81%; AUC(0-inf) [15]: 13 µM·h; solubility kinetic [16]: 33 µM; inhibition [17]: Active; clearance [18]: 39 mL/min/kg; inhibition in vivo at 50 mg/kg (OVCAR-3 [19]): 112%; half-life [20]: 19.8 min
0.18,250,15,18,50,–,CNS(=O)(=O)c1ccc(Nc2ncc3ccc(C(=O)N4CC[C@@H]4C)nc3n2)c(F)c1,50,38,"Fu [10]: 0.26%; bioavailability [11]: 9%; logD [12]: 1.8; inhibition in vivo at 80 mg/kg (OVCAR-3 [21]): 85%; Vdss ([13]; mouse, iv, 1 mg/kg, 5 min): 1.1 L/kg; efflux ratio at 5 µM (MDR1): 13; AUC(0-inf) [15]: 11 µM·h; solubility kinetic [16]: 31 µM; inhibition [17]: Active; t1/2 ([20]; mouse, iv, 1 mg/kg, 5 min): 17.4 min"
2.1,41,13,19,54,–,CNS(=O)(=O)c1ccc(Nc2ncc3ccc(C(=O)N4C[C@H](F)[C@@H]4C)nc3n2)c(F)c1,36,360,–
–,–,–,–,–,–,COCc1cc(C(=O)Nc2cc([C@H]3CC[C@@H](OC(=O)NC(C)C)C3)[nH]n2)n(C)n1 [TEGTOCICLIB],–,160,–
8.7,72,–,14,67,–,CNS(=O)(=O)c1ccc(Nc2ncc3ccc(C(=O)N4C[C@H](F)C[C@@H]4C)cc3n2)c(C)c1,13,1500,–
0.16,813,–,18,75,4800,CNS(=O)(=O)c1ccc(Nc2ncc3ccc(C(=O)N4CCC[C@@H]4C)cc3n2)c(C)c1,–,–,–
920,–,–,–,–,4.3,O=C(c1ccc2cnc(NC3CCOCC3)cc2n1)N1CCCCC1,–,–,–
7.9,–,–,–,–,–,O=C(N[C@H](CO)c1ccc(Cl)c(F)c1)c1ccc2cnc(NC3CCOCC3)nc2c1,–,–,Ki [9]: 0.22 nM
0.13,16,–,< 3.9,< 14,–,C[C@H]1CCN1C(=O)c1ccc2cnc(NC3CCN(S(C)(=O)=O)CC3)nc2c1,–,–,–
88,–,–,–,–,6.8,O=C(c1ccc2cnc(NC3CCOCC3)cc2n1)N1CCCC1,–,–,–
0.44,186,5,11,53,–,CNS(=O)(=O)c1ccc(Nc2ncc3ccc(C(=O)N4C[C@@H](C#N)[C@@H]4C)nc3n2)c(F)c1,83,53,Fu [10]: 0.31%; bioavailability [11]: 3%; logD [12]: 1.5; Vd [13]: 0.35 L/kg; AUC(0-inf) [15]: 5.5 µM·h; solubility kinetic [16]: 3 µM; clearance [18]: 18 mL/min/kg; half-life [20]: 21.6 min
71,4.2,–,< 3.9,42,110,C[C@H]1CCCN1C(=O)c1ccc2cnc(NC3CCN(S(C)(=O)=O)CC3)nc2c1,–,–,–
0.63,270,1.6,12,19,–,CNS(=O)(=O)c1ccc(Nc2ncc3ccc(C(=O)N4C[C@@H](F)C[C@@H]4C)nc3n2)c(C)c1,48,250,–
0.18,78,–,< 3.9,30,2800,C[C@H]1CCCN1C(=O)c1ccc2cnc(NC3CCN(S(N)(=O)=O)CC3)nc2c1,–,–,–
0.17,55,–,< 3.9,37,> 10000,C[C@@H]1CCCN1C(=O)c1ccc2cnc(NC3CCN(S(C)(=O)=O)CC3)nc2c1,–,–,–
0.34,150,–,19,76,850,CNS(=O)(=O)c1ccc(Nc2ncc3ccc(C(=O)N4CCC[C@@H]4C)cc3n2)cc1,–,–,–
240,–,–,–,–,28,O=C(c1ccc2cnc(NC3CCOCC3)cc2n1)N1CCCCCC1,–,–,–
6.5,–,–,–,–,–,O=C(N[C@H](CO)c1ccc(Cl)c(F)c1)c1ccc2cnc(NC3CCOCC3)nc2n1,–,–,Ki [9]: 0.17 nM
9,16,–,< 3.9,20,330,CS(=O)(=O)N1CCC(Nc2ncc3ccc(C(=O)N4CCCC4)cc3n2)CC1,–,–,–
0.49,155,12,16,69,–,CNS(=O)(=O)c1ccc(Nc2ncc3ccc(C(=O)N4C[C@@H](F)C[C@@H]4C)cc3n2)c(C)c1,43,130,–
1,89,< 1,< 3.9,< 14,–,CNS(=O)(=O)c1ccc(Nc2ncc3ccc(C(=O)N4C[C@@H](O)[C@@H]4C)nc3n2)c(F)c1,47,430,–
750,–,–,–,–,13,CC1CCCCN1C(=O)c1ccc2cnc(NC3CCOCC3)cc2n1 (racemic),–,–,–
–,–,–,–,–,–,C[C@@]1(O)CCC[C@H]1n1c(=O)c(C(F)F)cc2cnc(NC3CCN(S(C)(=O)=O)CC3)nc21 [EBVACICLIB],–,46,–
1.1,155,4.9,13,56,–,CNS(=O)(=O)c1ccc(Nc2ncc3ccc(C(=O)N4C[C@@H](F)C[C@@H]4C)nc3n2)c(F)c1,38,260,–
13,–,–,–,–,1.8,O=C(c1ccc2cnc(NC3CCOCC3)cc2n1)N1CCC1,–,–,–
17,42,–,13,58,310,Cc1cc(S(C)(=O)=O)ccc1Nc1ncc2ccc(C(=O)N3CCC[C@@H]3C)cc2n1,–,–,–

SMILES,Ki [1] [nM],Ratio Ki [3],Papp A→B at 5 µM [4] [×10⁻⁶ cm/s],CLhep predicted at 1 µM [5] [mL/min/kg],CLhep predicted at 1 µM [7] [mL/min/kg],Ratio Ki [22],Ratio IC50 [2],IC50 [6] [nM],also measured
CC[C@H](Nc1nc(NCc2cnc(C)cc2C)c2ncn(C(C)C)c2n1)[C@@H](C)O [CYC-065],–,57,–,–,–,–,–,1100,Ratio Ki [8]: 61
